Measured values published in ChEMBL document CHEMBL1201862, “PubChem BioAssay data set” (2004).
Active and inactive are the calls of the source.

Experiments:
[1] = molecular target: T1, Polyadenylate-binding protein 1 (Homo sapiens, UniProt P11940); assay: PABP1 MLLE–PAM2 binding inhibitor potency, dose response, biochemical, fluorescence polarization, FITC-PAM2 peptide (AID 602259); type: functional; details: read-out: IC50_Mean
[2] = molecular target: T1, Polyadenylate-binding protein 1; assay: PABP1 MLLE–PAM2 interaction inhibitors, dose response, miRNA deadenylation inhibitor project, biochemical, fluorescence polarization, Cy5-PAM2 peptide, secondary (AID 602260); type: functional; details: read-out: IC50_Mean
[3] = molecular target: Protein S100-A4 (Homo sapiens, UniProt P26447); assay: S100A4-myosin IIA binding inhibitor potency, dose response, biochemical, fluorescence polarization, cherry-picked hits (AID 687001); type: functional
[4] = molecular target: T2, Interleukin-8 (Homo sapiens, UniProt P10145); assay: Dose Response confirmation of uHTS small molecule hits for cystic fibrosis induced NFkb Inhibitors in a PAF-induced IL8 counterscreen.; type: functional; details: read-out: IC50_Mean
T2 sequence (P10145 whole entry): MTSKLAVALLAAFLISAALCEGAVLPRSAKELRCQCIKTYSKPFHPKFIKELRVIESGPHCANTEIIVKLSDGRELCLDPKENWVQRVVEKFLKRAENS

[5] = molecular target: T2, Interleukin-8; assay: Dose Response confirmation of uHTS small molecule hits for cystic fibrosis induced NFkb Inhibitors in a TNFa-induced IL8 counterscreen.; type: functional; details: read-out: IC50_Mean
[6] = molecular target: T3, Heat shock factor protein 1 (Mus musculus, UniProt P38532); assay: inhibition of MG132-induced HSE-luciferase signal, confirmation, cell-based, NIH3T3, luminescence, dose retest (AID 2382); type: functional;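 note: NIH3T3 fibroblasts with HSF1-driven luciferase reporter stressed by proteasome inhibitor MG132; luminescence from HSF1-driven luciferase expression after 8 hours of MG132 stress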
T3 sequence (P38532 whole entry): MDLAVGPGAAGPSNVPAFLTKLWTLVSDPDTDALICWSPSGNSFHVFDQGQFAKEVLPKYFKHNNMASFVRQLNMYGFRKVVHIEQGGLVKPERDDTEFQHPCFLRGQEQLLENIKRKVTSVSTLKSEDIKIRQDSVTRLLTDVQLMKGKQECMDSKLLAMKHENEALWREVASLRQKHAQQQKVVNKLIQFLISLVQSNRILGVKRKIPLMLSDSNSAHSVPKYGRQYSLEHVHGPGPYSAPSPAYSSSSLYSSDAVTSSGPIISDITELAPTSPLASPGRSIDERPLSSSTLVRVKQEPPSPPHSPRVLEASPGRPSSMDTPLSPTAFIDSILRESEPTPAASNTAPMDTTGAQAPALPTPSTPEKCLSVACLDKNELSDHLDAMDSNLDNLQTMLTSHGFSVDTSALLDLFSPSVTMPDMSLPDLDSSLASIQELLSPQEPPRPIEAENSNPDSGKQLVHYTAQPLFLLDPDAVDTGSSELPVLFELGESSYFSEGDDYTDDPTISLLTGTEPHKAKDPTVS

[7] = molecular target: Nuclear receptor subfamily 5 group A member 2 (Homo sapiens, UniProt O00482); type: functional, cell-based;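 note: HEK293T cells transfected with LRH-1 and a StAR promoter luciferase reporter; potency for inhibitors that lower LRH-1 driven reporter light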
[8] = molecular target: Steroidogenic factor 1 (Homo sapiens, UniProt Q13285); assay: Counterscreen for inverse agonists of the liver receptor homolog-1 (LRH-1; NR5A2): Luminescence-based cell-based high throughput dose response assay to identify inverse agonists of the Steroidogenic Factor 1 Nuclear Receptor (SF1; NR5A1).; type: functional
[9] = StAR promoter reporter inhibition counter-screen, dose response, counter-screen for LRH-1 inverse agonist project, cell-based, luminescence, luciferase reporter (AID 651969); type: functional
[10] = molecular target: 5-hydroxytryptamine receptor 2A (Mus musculus, UniProt P35363); type: functional, cell-based;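 note: CHO-K1 cells with tagged receptor and beta-arrestin; agonist potency measured as compound-induced activation of the receptor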
[11] = molecular target: Mu-type opioid receptor (Homo sapiens, UniProt P35372); type: functional, cell-based;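 note: U2OS cells with beta-arrestin recruitment to OPRM1 by beta-gal complementation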
[12] = test system: Vero; assay: Vero cell toxicity, dose response, cytotoxicity control, plate reader, cherry-pick samples (AID 687020); type: functional, cell-based; details: Chlorocebus sabaeus
[13] = molecular target: Genome polyprotein (dengue virus type 2, UniProt P29990); assay: Dengue-2 NS5 methyltransferase inhibitors, primary screen, biochemical, confirmation dose response (AID 588689); type: functional
[14] = molecular target: T4, Replicative DNA helicase DnaB (Mycobacterium tuberculosis, UniProt P9WMR3); assay: DnaB intein splicing inhibitors, dose response, biochemical, cell-free fluorescence (AID 449749); type: functional
T4 sequence (P9WMR3 whole entry): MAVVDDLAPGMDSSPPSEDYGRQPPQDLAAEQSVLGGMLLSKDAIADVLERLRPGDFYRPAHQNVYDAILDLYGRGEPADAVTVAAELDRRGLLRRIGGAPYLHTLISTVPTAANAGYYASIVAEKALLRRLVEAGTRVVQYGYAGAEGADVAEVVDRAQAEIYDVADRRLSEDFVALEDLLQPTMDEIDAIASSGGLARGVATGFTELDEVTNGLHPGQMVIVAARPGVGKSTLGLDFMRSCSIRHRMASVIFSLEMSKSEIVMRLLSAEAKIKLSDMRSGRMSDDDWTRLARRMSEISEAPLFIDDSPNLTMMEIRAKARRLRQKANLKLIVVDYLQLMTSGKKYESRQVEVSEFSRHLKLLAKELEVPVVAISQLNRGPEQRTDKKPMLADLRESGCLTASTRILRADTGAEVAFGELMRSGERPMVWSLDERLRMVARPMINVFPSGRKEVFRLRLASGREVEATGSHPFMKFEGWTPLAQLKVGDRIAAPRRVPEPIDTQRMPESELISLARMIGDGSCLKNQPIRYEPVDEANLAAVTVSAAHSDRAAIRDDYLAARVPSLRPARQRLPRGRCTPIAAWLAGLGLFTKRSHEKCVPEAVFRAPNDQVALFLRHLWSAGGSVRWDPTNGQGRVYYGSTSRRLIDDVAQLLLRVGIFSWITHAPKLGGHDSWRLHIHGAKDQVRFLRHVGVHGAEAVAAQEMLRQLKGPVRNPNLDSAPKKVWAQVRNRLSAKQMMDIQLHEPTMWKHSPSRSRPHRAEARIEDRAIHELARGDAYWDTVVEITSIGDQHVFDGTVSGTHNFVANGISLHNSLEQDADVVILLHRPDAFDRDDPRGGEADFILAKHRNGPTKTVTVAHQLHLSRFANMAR

[15] = molecular target: Mitochondrial peptide methionine sulfoxide reductase (Bos taurus, UniProt P54149); assay: Absorbance-based biochemical high throughput dose response assay for activators of Methionine sulfoxide reductase A (MsrA).; type: functional
[16] = molecular target: Matrix metalloproteinase-14 (Homo sapiens, UniProt P50281); assay: Dose Response confirmation of uHTS hits for a small molecule inhibitors of MT1-MMP activation in a fluorescence assay set 2.; type: functional
[17] = molecular target: T5, Protein RecA (Mycobacterium tuberculosis, UniProt P9WHJ3); assay: Fluorescence Cell-Free Homogeneous Dose Retest to Identify Inhibitors of RecA-Intein Splicing Activity. [Related pubchem assays (depositor defined):AID2097, AID2223, AID489010, AID492950]; type: functional
T5 sequence (P9WHJ3 whole entry): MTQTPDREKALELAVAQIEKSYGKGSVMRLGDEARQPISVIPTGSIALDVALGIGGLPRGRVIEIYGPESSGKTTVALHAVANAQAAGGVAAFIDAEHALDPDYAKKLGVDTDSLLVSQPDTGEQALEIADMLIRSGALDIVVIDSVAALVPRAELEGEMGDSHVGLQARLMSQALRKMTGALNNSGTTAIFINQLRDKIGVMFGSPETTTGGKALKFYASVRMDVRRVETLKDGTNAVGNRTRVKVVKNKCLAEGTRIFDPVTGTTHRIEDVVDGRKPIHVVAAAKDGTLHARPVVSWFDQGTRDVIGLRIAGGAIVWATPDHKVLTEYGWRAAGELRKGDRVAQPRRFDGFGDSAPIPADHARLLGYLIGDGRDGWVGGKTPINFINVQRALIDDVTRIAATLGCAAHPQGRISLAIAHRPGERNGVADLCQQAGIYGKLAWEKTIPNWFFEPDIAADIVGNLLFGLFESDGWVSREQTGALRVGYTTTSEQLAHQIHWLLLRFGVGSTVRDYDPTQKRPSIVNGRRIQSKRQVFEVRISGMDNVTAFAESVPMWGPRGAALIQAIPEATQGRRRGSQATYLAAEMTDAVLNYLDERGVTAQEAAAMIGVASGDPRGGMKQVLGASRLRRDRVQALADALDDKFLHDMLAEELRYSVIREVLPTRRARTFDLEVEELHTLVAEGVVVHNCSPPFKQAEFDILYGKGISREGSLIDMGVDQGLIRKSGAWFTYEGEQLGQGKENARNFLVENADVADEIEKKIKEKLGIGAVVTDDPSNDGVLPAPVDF

[18] = molecular target: Caspase-6 (Homo sapiens, UniProt P55212); assay: human caspase-6 inhibitors, dose response, biochemical, VEID-R110 fluorescence, cherry-pick (AID 720632)
[19] = molecular target: Beta-galactosidase (Escherichia coli, UniProt Q8VNN2); assay: Dose response counterscreen for EBI2 assay utilizing the enzyme, b-galactosidase.; type: functional
[20] = molecular target: T6, Beta-2 adrenergic receptor (Homo sapiens, UniProt P07550); assay: Dose response for HTS for Beta-2AR agonists via FAP method from Powderset1.; type: functional
[21] = molecular target: T6, Beta-2 adrenergic receptor; assay: beta2AR agonists driving receptor internalization, dose response, cell-based, FAP fluorogen, flow cytometry, cherry pick 1 (AID 588763); type: functional

T1 sequence (P11940 whole entry): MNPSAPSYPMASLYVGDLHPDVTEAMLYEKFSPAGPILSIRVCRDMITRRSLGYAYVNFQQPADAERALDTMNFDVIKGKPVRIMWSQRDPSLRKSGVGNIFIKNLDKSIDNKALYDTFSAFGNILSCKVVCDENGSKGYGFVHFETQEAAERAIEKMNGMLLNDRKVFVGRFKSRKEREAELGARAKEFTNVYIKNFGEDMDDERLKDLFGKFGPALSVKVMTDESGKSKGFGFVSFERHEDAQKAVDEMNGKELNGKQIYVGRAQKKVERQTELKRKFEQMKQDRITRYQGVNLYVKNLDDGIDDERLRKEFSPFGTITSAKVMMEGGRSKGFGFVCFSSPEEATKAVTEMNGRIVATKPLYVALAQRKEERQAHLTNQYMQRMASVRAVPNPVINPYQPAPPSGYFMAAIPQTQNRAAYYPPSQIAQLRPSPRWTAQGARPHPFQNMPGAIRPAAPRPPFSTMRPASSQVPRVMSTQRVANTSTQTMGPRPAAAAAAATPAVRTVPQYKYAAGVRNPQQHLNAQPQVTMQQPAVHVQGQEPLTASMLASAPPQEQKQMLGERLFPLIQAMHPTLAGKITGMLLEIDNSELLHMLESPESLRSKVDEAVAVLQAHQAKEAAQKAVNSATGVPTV
T6 sequence (P07550 whole entry): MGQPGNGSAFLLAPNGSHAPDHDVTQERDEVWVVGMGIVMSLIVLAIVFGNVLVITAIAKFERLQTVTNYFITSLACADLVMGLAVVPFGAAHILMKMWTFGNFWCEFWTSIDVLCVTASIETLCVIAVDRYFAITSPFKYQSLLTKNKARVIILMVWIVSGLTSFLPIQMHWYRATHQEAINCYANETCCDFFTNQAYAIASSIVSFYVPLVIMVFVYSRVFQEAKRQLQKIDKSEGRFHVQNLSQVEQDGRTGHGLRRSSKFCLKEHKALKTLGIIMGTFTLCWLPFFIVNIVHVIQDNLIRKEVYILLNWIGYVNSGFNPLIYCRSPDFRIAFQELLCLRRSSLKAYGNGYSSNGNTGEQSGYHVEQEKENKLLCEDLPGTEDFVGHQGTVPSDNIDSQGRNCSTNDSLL
Sequence of Steroidogenic factor 1 (Q13285 whole entry): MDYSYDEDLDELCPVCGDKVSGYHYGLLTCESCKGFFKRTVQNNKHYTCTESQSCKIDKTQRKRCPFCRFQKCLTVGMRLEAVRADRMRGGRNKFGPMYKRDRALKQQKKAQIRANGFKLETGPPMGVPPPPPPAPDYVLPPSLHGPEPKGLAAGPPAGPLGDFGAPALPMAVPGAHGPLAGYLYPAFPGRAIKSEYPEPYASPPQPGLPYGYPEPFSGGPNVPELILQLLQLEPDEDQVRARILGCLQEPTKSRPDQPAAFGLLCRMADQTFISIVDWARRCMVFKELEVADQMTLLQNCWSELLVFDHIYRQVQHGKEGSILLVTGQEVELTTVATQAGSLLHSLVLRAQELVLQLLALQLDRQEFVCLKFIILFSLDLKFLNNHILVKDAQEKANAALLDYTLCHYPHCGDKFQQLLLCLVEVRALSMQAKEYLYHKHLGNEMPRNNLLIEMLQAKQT
Sequence of 5-hydroxytryptamine receptor 2A (P35363 whole entry): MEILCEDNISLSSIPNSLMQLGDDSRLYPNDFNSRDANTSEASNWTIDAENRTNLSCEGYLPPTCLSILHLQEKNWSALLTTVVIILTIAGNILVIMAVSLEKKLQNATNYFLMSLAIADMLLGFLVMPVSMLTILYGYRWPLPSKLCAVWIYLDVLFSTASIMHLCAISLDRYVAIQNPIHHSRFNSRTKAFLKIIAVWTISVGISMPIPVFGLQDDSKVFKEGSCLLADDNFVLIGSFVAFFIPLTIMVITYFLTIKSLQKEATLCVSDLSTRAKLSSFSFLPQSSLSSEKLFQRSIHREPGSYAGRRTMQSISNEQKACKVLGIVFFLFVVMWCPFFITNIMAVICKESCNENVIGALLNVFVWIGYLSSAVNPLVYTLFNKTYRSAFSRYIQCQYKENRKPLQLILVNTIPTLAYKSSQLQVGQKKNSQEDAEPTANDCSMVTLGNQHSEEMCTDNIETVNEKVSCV
Sequence of Mu-type opioid receptor (P35372 whole entry): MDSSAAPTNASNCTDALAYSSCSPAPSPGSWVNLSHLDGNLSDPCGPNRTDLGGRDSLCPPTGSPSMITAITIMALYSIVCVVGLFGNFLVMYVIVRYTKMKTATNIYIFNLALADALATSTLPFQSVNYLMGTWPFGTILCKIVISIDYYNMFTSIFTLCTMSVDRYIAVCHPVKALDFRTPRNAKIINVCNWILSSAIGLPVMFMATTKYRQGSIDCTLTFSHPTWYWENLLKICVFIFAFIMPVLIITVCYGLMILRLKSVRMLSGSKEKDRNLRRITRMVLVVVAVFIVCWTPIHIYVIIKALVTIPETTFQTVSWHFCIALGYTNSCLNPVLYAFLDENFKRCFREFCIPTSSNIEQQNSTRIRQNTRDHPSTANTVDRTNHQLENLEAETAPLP
Sequence of Beta-galactosidase (Q8VNN2 whole entry): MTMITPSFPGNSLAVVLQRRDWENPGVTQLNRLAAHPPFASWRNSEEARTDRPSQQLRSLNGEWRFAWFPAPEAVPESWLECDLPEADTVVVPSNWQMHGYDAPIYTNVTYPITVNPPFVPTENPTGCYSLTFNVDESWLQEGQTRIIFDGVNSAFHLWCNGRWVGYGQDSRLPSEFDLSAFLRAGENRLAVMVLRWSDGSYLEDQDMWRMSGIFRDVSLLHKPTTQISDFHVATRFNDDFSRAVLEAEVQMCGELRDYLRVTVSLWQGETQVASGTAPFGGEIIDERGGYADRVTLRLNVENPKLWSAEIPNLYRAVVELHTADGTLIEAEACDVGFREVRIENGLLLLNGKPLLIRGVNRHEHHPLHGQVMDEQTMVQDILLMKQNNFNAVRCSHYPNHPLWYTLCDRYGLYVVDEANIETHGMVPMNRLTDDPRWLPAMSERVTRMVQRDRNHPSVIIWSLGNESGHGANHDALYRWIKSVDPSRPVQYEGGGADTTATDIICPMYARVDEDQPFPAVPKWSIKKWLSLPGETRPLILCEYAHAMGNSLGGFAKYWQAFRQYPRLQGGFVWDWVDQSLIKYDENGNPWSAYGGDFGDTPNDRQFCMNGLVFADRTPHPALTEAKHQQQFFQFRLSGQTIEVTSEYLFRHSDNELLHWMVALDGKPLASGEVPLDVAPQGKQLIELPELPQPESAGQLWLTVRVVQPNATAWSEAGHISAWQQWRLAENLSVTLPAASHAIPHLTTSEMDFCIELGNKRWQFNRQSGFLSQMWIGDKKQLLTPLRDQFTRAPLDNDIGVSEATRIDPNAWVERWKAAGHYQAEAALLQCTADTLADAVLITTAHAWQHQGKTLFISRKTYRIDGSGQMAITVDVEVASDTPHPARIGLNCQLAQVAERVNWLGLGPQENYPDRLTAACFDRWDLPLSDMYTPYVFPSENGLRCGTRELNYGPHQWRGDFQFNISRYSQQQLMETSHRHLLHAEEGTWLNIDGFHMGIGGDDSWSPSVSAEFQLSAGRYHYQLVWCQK
Sequence of Nuclear receptor subfamily 5 group A member 2 (O00482 whole entry): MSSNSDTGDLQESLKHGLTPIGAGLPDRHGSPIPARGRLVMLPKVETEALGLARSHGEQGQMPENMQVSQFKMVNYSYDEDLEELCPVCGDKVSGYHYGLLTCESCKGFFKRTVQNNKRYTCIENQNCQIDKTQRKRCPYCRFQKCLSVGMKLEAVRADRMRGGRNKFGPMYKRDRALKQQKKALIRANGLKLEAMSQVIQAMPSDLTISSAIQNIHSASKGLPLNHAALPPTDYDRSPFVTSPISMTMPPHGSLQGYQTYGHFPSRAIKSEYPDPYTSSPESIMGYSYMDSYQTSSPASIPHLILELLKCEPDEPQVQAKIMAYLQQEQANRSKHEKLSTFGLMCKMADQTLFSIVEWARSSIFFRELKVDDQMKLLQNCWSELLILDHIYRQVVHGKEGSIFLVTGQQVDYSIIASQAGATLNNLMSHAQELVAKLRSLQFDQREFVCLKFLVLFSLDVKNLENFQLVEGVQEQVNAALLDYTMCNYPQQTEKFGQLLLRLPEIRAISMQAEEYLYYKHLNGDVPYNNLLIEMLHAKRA
Sequence of Genome polyprotein (P29990 2492-3391 limits assumed): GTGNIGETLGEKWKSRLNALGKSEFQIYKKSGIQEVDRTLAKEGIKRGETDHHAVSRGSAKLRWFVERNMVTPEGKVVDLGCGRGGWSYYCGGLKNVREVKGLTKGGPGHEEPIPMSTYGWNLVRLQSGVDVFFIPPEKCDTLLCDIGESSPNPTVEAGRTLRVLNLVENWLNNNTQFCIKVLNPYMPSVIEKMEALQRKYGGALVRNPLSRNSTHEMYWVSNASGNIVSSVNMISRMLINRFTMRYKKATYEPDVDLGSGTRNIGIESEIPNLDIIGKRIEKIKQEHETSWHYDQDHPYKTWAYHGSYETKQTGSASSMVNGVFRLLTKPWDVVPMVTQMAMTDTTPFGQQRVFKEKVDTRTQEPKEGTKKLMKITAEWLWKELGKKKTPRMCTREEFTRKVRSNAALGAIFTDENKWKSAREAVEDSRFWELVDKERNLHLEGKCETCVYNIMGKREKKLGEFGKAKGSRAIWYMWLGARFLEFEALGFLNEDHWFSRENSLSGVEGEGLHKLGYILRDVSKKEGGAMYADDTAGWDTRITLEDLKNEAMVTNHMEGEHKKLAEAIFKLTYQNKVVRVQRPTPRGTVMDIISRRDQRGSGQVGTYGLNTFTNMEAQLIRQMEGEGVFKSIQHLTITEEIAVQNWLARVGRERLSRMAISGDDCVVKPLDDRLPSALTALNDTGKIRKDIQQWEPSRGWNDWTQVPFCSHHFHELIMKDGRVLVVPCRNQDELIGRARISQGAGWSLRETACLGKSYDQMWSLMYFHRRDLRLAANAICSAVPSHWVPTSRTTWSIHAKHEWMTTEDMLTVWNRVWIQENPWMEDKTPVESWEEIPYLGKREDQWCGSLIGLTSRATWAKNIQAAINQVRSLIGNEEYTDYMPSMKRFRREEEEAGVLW
Sequence of Protein S100-A4 (P26447 whole entry): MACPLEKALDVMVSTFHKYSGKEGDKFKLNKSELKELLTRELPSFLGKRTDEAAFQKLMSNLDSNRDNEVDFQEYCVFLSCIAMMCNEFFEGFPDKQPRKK

## Cc1cc2ccccc2n1CCNC(=O)c1ccc(Br)o1
[1]
  IC50: > 66 µM (inactive)
[2]
  IC50: > 66 µM (inactive)
[3]
  AC50: 6.02 µM (active)

## CCN(c1ccc(OC)cc1)c1[nH]cnc2ncnc1-2
[4]
  IC50: 14.5 µM (inactive)
[5]
  IC50: > 79 µM (inactive)
[6]
  EC50: 21.8 µM (active)

## COC(=O)c1ccc(NC(=O)CSc2nc3ccc[nH]c-3n2)cc1
[7]
  IC50: 35.9 µM (inactive)
[8]
  IC50: 0.978 µM (active)
[9]
  IC50: 35.9 µM (inactive)

## O=C(Cn1cnc2ccccc2c1=O)N1CCN(Cc2ccc3c(c2)OCO3)CC1
[10]
  EC50: 16.4 µM (inactive)
[11]
  EC50: 92.5 µM (inactive)

## CC(=O)Nc1cccc(C(=O)OC(C)C(=O)NC(=O)NC2CCCCC2)c1 (stereo unspecified)
[12]
  AC50: 23.6 µM (active)

## C[n+]1c2ccccc2nc2ccc(NCCO)cc21
[13]
  IC50: 18.6 µM (active)
[14]
  AC50: 19.9 µM (active)
[15]
  EC50: 3.53 µM (active)
[16]
  IC50: 10.5 µM (active)
[17]
  EC50: 2.38 µM (active)
[18]
  AC50: 3.35 µM (active)

## O=C(/C=C/c1ccc(Cl)cc1)N1CCN(c2c(Cl)cccc2[N+](=O)[O-])CC1
[19]
  IC50: > 80 µM (inactive)

## CN(CC(=O)N1CCN(c2ccccn2)CC1)S(=O)(=O)c1ccccc1
[20]
  EC50: 0.0435 µM (active)
[21]
  EC50: 0.274 µM (active)
